Reference: patent US20110086759A1, “CHEMICAL COMPOUNDS” (SYNGENTA CROP PROTECTION, INC., priority 2007, published 2011)

Legend:
Format in all cases: in vivo
[1] = system: Alopecurus myosuroides (ALOMY); assay: Pre-emergence biological efficacy, glasshouse pot test; details: 312 h, pre-emergence, 1,000 g/ha, evaluated after 13 days (100=total damage; 0=no damage), read-out: Percentage damage ALOMY
Method in brief: (§1)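 Standard soil, pots, sown then sprayed at day 1 with 1000 or 250 g/ha test compound. Glasshouse: 24/16 °C, 14 h photoperiod, 65% humidity, twice-daily watering. Evaluation day 13, 0–100 damage score.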

[2] = system: Amaranthus retoflexus (AMARE); assay: as above; details: Amaranthus retroflexus, 312 h; pre-emergence, 1,000 g/ha, evaluated after 13 days (100=total damage; 0=no damage); read-out: Percentage damage AMARE
Method in brief: as §1

[3] = system: Echinochloa crus-galli (ECHCG); assay: as above; details: 312 h, pre-emergence, 1,000 g/ha, evaluated after 13 days (100=total damage; 0=no damage), read-out: Percentage damage ECHCG
Method in brief: as §1

[4] = system: Ipomea hederaceae (IPOHE); assay: as above; details: Ipomoea hederacea, 312 h; pre-emergence, 1,000 g/ha, evaluated after 13 days (100=total damage; 0=no damage); read-out: Percentage damage IPOHE
Method in brief: as §1

Setaria faberi (SETFA) [5] = assay: as above; details: 312 h, pre-emergence, 1,000 g/ha, evaluated after 13 days (100=total damage; 0=no damage), read-out: Percentage damage SETFA
Method in brief: as §1

Solanum nigrum (SOLNI) [6] = assay: as above; details: 312 h, pre-emergence, 1,000 g/ha, evaluated after 13 days (100=total damage; 0=no damage), read-out: Percentage damage SOLNI
Method in brief: as §1

[7] = system: Alopecurus myosuroides (ALOMY); assay: Post-emergence biological efficacy, glasshouse pot test; details: 312 h, post-emergence, 1,000 g/ha, evaluated after 13 days (100=total damage; 0=no damage), read-out: Percentage damage caused to weed species, ALOMY
Method in brief: (§2)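 Scored 13 days after spraying on a 0 (no damage) to 100 (total damage) scale. Treatment was a post-emergence spray at 1000 or 250 g/ha, from acetone/water 50:50 plus 0.5% Tween 20, onto 8-day-old plants in soil pots. Growth at 24/16° C, 14 h photoperiod, 65% humidity, watered twice daily.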

[8] = system: Amaranthus retoflexus (AMARE); assay: as above; details: Amaranthus retroflexus, 312 h; post-emergence, 1,000 g/ha, evaluated after 13 days (100=total damage; 0=no damage); read-out: Percentage damage caused to weed species, AMARE
Method in brief: as §2

[9] = system: Echinochloa crus-galli (ECHCG); assay: as above; details: 312 h, post-emergence, 1,000 g/ha, evaluated after 13 days (100=total damage; 0=no damage), read-out: Percentage damage caused to weed species, ECHCG
Method in brief: as §2

[10] = system: Ipomea hederaceae (IPOHE); assay: as above; details: Ipomoea hederacea, 312 h; post-emergence, 1,000 g/ha, evaluated after 13 days (100=total damage; 0=no damage); read-out: Percentage damage caused to weed species, IPOHE
Method in brief: as §2

Setaria faberi (SETFA) [11] = assay: as above; details: 312 h, post-emergence, 1,000 g/ha, evaluated after 13 days (100=total damage; 0=no damage), read-out: Percentage damage caused to weed species, SETFA
Method in brief: as §2

Solanum nigrum (SOLNI) [12] = assay: as above; details: 312 h, post-emergence, 1,000 g/ha, evaluated after 13 days (100=total damage; 0=no damage), read-out: Percentage damage caused to weed species, SOLNI
Method in brief: as §2

Row | SMILES | pest or weed control at 1000 g/ha [1] [%] | pest or weed control at 1000 g/ha [2] [%] | pest or weed control at 1000 g/ha [3] [%] | pest or weed control at 1000 g/ha [4] [%] | pest or weed control at 1000 g/ha (Setaria faberi (SETFA) [5]) [%] | pest or weed control at 1000 g/ha (Solanum nigrum (SOLNI) [6]) [%] | pest or weed control at 1000 g/ha [7] [%] | pest or weed control at 1000 g/ha [8] [%] | pest or weed control at 1000 g/ha [9] [%] | pest or weed control at 1000 g/ha [10] [%] | pest or weed control at 1000 g/ha (Setaria faberi (SETFA) [11]) [%] | pest or weed control at 1000 g/ha (Solanum nigrum (SOLNI) [12]) [%]
1 | COC(=O)c1nc(C2CC2)nc(NCc2cnc(Cl)s2)c1Cl [Compound 4-146, 5-Chloro-4-(2-chlorothiazol-5-ylmethylamino)-2-cyclopropyl-6-methoxycarbonyl-pyrimidine] | 50 | 70 | 50 | 100 | 0 | 40 | 20 | 90 | 50 | 80 | 70 | 90
2 | COC(=O)c1nc(C2CC2)nc(NCc2ncco2)c1Cl [Compound 4-148, 5-Chloro-2-cyclopropyl-6-methoxycarbonyl-4-(oxazol-2-ylmethylamino)-pyrimidine] | 20 | 80 | 30 | 100 | 20 | 90 | 20 | 100 | 40 | 60 | 50 | 80
3 | COC(=O)c1nc(C2CC2)nc(NCc2ccccn2)c1Cl [Compound 4-151, 5-Chloro-2-cyclopropyl-6-methoxycarbonyl-4-(pyrid-2-yl-methylamino)-pyrimidine] | 40 | 100 | 60 | 90 | 50 | 90 | 60 | 100 | 80 | 80 | 80 | 80
4 | COC(=O)c1nc(C2CC2)nc(NCc2ncccc2Cl)c1Cl [Compound 4-152, 5-Chloro-4-(3-chloropyrid-2-ylmethylamino)-2-cyclopropyl-6-methoxycarbonyl-pyrimidine] | 20 | 70 | 70 | 100 | 40 | 80 | 50 | 100 | 80 | 100 | 90 | 90
5 | COC(=O)c1nc(C2CC2)nc(NCc2ncccc2C)c1Cl [Compound 4-153, 5-Chloro-2-cyclopropyl-6-methoxycarbonyl-4-(3-methylpyrid-2-ylmethylamino)-pyrimidine] | 50 | 100 | 60 | 100 | 60 | 100 | 70 | 100 | 80 | 100 | 90 | 100
6 | COC(=O)c1nc(C2CC2)nc(NCc2ncc(C(F)(F)F)cc2Cl)c1Cl [Compound 4-155, 5-Chloro-4-(3-chloro-5-trifluoromethylpyrid-2-ylmethylamino)-2-cyclopropyl-6-methoxycarbonyl-pyrimidine] | 20 | 90 | 80 | 90 | 20 | 70 | 30 | 100 | 70 | 90 | 70 | 90
7 | COC(=O)c1nc(C2CC2)nc(NCc2cccnc2)c1Cl [Compound 4-156, 5-Chloro-2-cyclopropyl-6-methoxycarbonyl-4-(pyrid-3-ylmethyl-amino)pyrimidine] | 0 | 50 | 0 | 80 | 0 | 30 | 30 | 100 | 50 | 70 | 70 | 90
8 | COC(=O)c1nc(C2CC2)nc(NCc2ccc(C(F)(F)F)nc2)c1Cl [Compound 4-159, 5-Chloro-2-cyclopropyl-6-methoxycarbonyl-4-(2-trifluoromethyl-pyrid-5-yl-methyl-amino)-pyrimidine] | 10 | 0 | 30 | 70 | 0 | 20 | 30 | 90 | 80 | 80 | 70 | 80
9 | COC(=O)c1nc(C2CC2)nc(NCc2ccncc2)c1Cl [Compound 4-160, 5-Chloro-2-cyclopropyl-6-methoxycarbonyl-4-(pyrid-4-yl-methyl-amino)pyrimidine] | 20 | 70 | 60 | 100 | 50 | 90 | 40 | 100 | 70 | 90 | 80 | 80
10 | COC(=O)c1nc(C2CC2)nc(NCc2cc3cc(Br)ccc3o2)c1Cl [Compound 4-164, 4-(5-Bromo-benzofuran-2-yl)methylamino-5-chloro-2-cyclopropyl-6-methoxycarbonyl-pyrimidine] | 30 | 50 | 30 | 100 | 30 | 50 | 30 | 100 | 60 | 80 | 70 | 100
11 | COC(=O)c1nc(C2CC2)nc(NCc2nc3ccccc3s2)c1Cl [Compound 4-168, 4-(Benzothiazol-2-ylmethylamino)-5-chloro-2-cyclopropyl-6-methoxycarbonyl-pyrimidine] | 20 | 20 | 20 | 50 | 0 | 40 | 30 | 90 | 40 | 60 | 60 | 70
